{
  "source": "patent US20260053765A1",
  "about": "“COMPOSITIONS AND METHODS FOR THE IMPROVEMENT OF MEMORY” (THE CHILDREN'S HOSPITAL OF PHILADELPHIA, priority 2016, published 2026)",
  "key": {"[1]": {"test_system": "fluid percussion injury mice", "test": "Conditioned fear response (CFR) after fluid percussion injury, GTA by oral gavage", "type": "in vivo, mouse", "conditions": "5 mg/kg GTA oral gavage for 5 days, CFR on day 7", "procedure": "A fluid percussion injury assay was performed. Briefly, a craniotomy was performed on anesthetized mice using a 3 mm trephine and a Luer-Hoc needle hub attached to the skull and capped. The following day, a fluid percussion injury device was employed to deliver a pulse of saline through the hub at a pressure between 1.4-2.14 atm, producing a mild to moderate percussion injury. Sham animals received all anesthesia and surgical procedures except for the fluid pulse.\nMice were allowed to recover for one day. Mice were then treated with 5 mg/kg of glyceryl triacetate (GTA) via oral gavage for 5 days. The conditioned fear response (CFR) assay was performed on day 7."}, "[2]": {"conditions": "within one hour of administration; cited from earlier work"}},
  "data": [
    {"compound": "CC(=O)OCC(COC(C)=O)OC(C)=O", "note": "[GTA, glyceryl triacetate]", "values": [
      {"measurement": "conditioned fear response (freezing)", "setting": "[1]", "value": "showed a similar fear response to sham animals and a statistically superior (P<0.05) response to those mice receiving the brain injury without treatment"},
      {"measurement": "increase of acetate levels in the brain", "setting": "[2]", "value": "over 15 fold"}
    ]}
  ]
}
